Read-outs that look alike come from different tables or passages of the source.
Assays:
[1] = tested on: trigeminal nerve ganglion function; assay: Intra-arterial lidocaine in the middle meningeal artery territory in patients with refractory trigeminal neuralgia (blink reflex monitoring, clinical outcome); assay type: in vivo
Excerpt: Trigeminal neuralgia consists of unilateral, brief/paroxysmal, or continuous pain in one or more divisions of the trigeminal nerve. The pain is secondary to hyperactivity or spontaneous impulse generation within the nerves due to extrinsic compression or intrinsic neural dysfunction. In the experiment, the intra-arterial delivery of medication for modulating trigeminal nerve ganglion function in patients with refractory trigeminal neuralgia was examined. […] Clinical outcome assessment included a 10-point numeric rating, 4-point severity grading, and the pain-free time interval pre- and post-treatment.

[2] = tested on: patients suffering from severe headaches

With `CCN(CC)CC(=O)Nc1c(C)cccc1C` [lidocaine] the symptoms at follow-up ([1]; all three patients, 1 month later) was “returned to baseline severity”, the facial hyperalgesia ([1]; all three patients, all dermatomes) was “improvement in facial hyperalgesia” and the “pain severity (10-point numeric rating, 4-point severity grading)” value ([1]; second and third patients) was “improvement in pain severity on all scales”. For the same compound, the pain-free interval ([1]; second patient) was 5 days, the pain-free interval ([1]; third patient) was 3 days and the “self-reported headache intensity (Visual Analog scale)” value ([2]; first patient, after 5 min of lidocaine injection (40 mg), pre-procedure intensity 10) was 5. The “self-reported headache intensity (Visual Analog scale)” value ([2]; second patient, after 5 min of lidocaine injection, pre-procedure intensity 7) was 4.

Source: US11931485B2, “Implantable sustained release device and a method of use therefor in the treatment of brain disorders” (priority 2021, dated 2024)
